Source: patent US6303639A, “Propanolamine derivatives substituted by heterocyclic radicals, processes for their preparation, pharmaceuticals comprising these compounds and their use” (Aventis Pharma Deutschland GmbH, priority 1998, dated 2001)

Biological target: T1, Na+-dependent bile acid transportation system (intestinal bile acid transportation system in the terminal small intestine) (Oryctolagus cuniculus, UniProt Q28727)
T1 construct: Brush border membrane vesicles from the intestinal cells of the small intestine were prepared by the so-called Mg^2+ precipitation method; from tissue; host or cells: brush border membrane vesicles from the terminal 7/10 of the small intestine (ileum) of male New Zealand rabbits
T1 sequence (Q28727 1-347): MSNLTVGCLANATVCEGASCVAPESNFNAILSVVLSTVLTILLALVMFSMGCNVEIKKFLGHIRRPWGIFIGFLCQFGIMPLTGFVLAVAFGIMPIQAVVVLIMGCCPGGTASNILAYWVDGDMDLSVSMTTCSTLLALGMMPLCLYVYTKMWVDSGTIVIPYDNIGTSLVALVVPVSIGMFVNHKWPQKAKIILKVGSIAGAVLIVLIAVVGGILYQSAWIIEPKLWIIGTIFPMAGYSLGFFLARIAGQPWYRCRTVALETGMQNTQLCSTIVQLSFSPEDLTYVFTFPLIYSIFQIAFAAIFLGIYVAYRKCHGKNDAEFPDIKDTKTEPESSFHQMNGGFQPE
Assay: Inhibition of Na+-dependent [3H]-taurocholate uptake in brush border membrane vesicles of the ileum of rabbits
Format: biochemical
Conditions: rabbit ileum brush border membrane vesicles, 50 μM taurocholate, usually 1 minute incubation
Description: Biological testing of the compounds according to the invention was carried out by determining the inhibition of [^3 H]-taurocholate uptake in brush border membrane vesicles of the ileum of rabbits. The inhibition test was carried out as described below.
Test 1. Preparation of Brush Border Membrane Vesicles from the Ileum of Rabbits
Brush border membrane vesicles from the intestinal cells of the small intestine were prepared by the so-called Mg^2+ precipitation method as follows. Male New Zealand rabbits (2 to 2.5 kg body weight) were sacrificed by intravenous injection of 0.5 ml of T61®, an aqueous solution of 2.5 mg of tetracaine HCl, 100 mg of embutramide and 25 mg of mebezonium iodide. The small intestine was removed and flushed with ice-cold physiological saline solution. The terminal 7/10 of the small intestine (measured in the oral-rectal direction, i.e. the terminal ileum, which contains the active Na^+ -dependent bile acid transportation system) was used for preparation of the brush border membrane vesicles. The intestines were frozen in plastic bags under nitrogen at -80° C.
For preparation of the membrane vesicles, the frozen intestines were thawed at 30° C. in a water-bath. The mucosa were peeled off and suspended in 60 ml of ice-cold 12 mM TRIS-HCl buffer (pH 7.1)/300 mM mannitol, 5 mM EGTA/10 mg/l of phenylmethyl-sulfonyl fluoride/1 mg/l of trypsin inhibitor from soybeans (32 U/mg)/0.5 mg/l of trypsin inhibitor from the bovine lung (193 U/mg)/5 mg/l of bacitracin. After dilution to 300 ml with ice-cold distilled water, the mixture was homogenized with an Ultraturrax (18-rod, IKA Werk Staufen, Germany) for 3 minutes at 75% of the maximum power, while cooling with ice. After addition of 3 ml of 1 M MgCl2 solution (final concentration 10 mM), the mixture was left to stand for exactly 1 minute at 0° C. The cell membranes aggregated by addition of Mg^2+ and precipitated, with the exception of the brush border membranes. After centrifugation for 15 minutes at 3000×g (5000 rpm, SS-34 rotor), the precipitate was discarded and the supernatant, which contained the brush border membranes, was centrifuged at 48000×g (20000 rpm, SS-34 rotor) for 30 minutes. The supernatant was discarded and the precipitate was rehomogenized in 60 ml of 12 mM TRIS/HCI buffer (pH 7.1)/60 mM mannitol, 5 mM EGTA with a Potter Elvejhem homogenizer (Braun, Melsungen, 900 rpm, 10-stroke). After addition of 0.1 ml of 1 M MgCl2 solution and an incubation time of 15 minutes at 0° C., the mixture was centrifuged again at 3000×g for 15 minutes. The supernatant was then centrifuged again at 48000×g (20000 rpm, SS-34 rotor) for 30 minutes. The precipitate was taken up in 30 ml of 10 mM TRIS/HEPES buffer (pH 7.4)/300 mM mannitol and resuspended by 20 strokes in a Potter Elvejhem homogenizer at a 1000 rpm. After centrifugation at 48000×g (20000 rpm, SS-34 rotor) for 30 minutes, the precipitate was taken up in 0.5 to 2 ml of TRIS/HEPES buffer (pH 7.4)/280 mM mannitol (final concentration 20 mg/ml) and resuspended with the aid of a tuberculin syringe with a 27-gauge needle. The vesicles were either used for the transportation investigations directly after the preparation, or stored in 4 mg portions in liquid nitrogen at -196° C.
Test 2. Inhibition of the Na^+ -dependent [^3 H]Taurocholate Uptake in Brush Border Member Vesicles of the Ileum
The uptake of substrates into the brush border membrane vesicles described above was determined by means of the so-called membrane filtration technique. 10 μl of the vesicle suspension (100 μg of protein) were pipetted as drops onto the wall of a polystyrene incubation tube (11×70 mm) which contained the incubation medium with the corresponding ligands (90 μl). […]

Compound	Biological Test: quotient of the IC50Na values of the reference substance taurochenodeoxycholate (TCDC) and of the test substance
OC(c1cnccn1)C(c1ccccn1)C(Nc1ccccn1)c1ccccc1 (stereo not shown) [Example 11]	0.24
OC(c1cnccn1)C(c1ccccn1)C(Nc1ccccn1)c1ccccc1 (stereo not shown) [Example 12]	0.24
Cc1nc(C)c(C(O)C(c2ccccn2)C(Nc2ccccn2)c2ccccc2)s1 (stereo not shown) [Example 14]	0.66
Cc1nc(C(O)C(c2ccccn2)C(Nc2ccccn2)c2ccccc2)c(C)o1 (stereo not shown) [Example 25]	0.46
Cc1noc(C)c1C(O)C(c1ccccn1)C(Nc1ccccn1)c1ccccc1 (stereo not shown) [Example 31]	0.37
Cc1nc(C(O)C(c2ccccn2)C(Nc2ccccn2)c2ccccc2)sc1C (stereo not shown) [Example 33]	0.24
COc1ccsc1C(O)C(c1ccccn1)C(Nc1ccccn1)c1ccccc1 (stereo not shown) [Example 37]	9.53
Cc1nc(C)c(C(O)C(c2ccccn2)C(Nc2ccccn2)c2ccccc2N)s1 (stereo not shown) [Example 39]	0.65
Cn1ccnc1C(O)C(c1ccccn1)C(Nc1ccccn1)c1ccccc1 (stereo not shown) [Example 42]	0.87
Cc1noc(C)c1C(O)C(c1ccccn1)C(Nc1ccccn1)c1ccccc1[N+](=O)[O-] (stereo not shown) [Example 43]	0.23
Cc1noc(C)c1C(O)C(c1ccccn1)C(Nc1ccccn1)c1ccccc1N (stereo not shown) [Example 44]	0.74
Cn1ncnc1C(O)C(c1ccccn1)C(Nc1ccccn1)c1ccccc1 (stereo not shown) [Example 47]	0.35
Cc1nc(C(O)C(c2ccccn2)C(Nc2ccccn2)c2ccccc2N)c(C)o1 (stereo not shown) [Example 48]	0.80
Cc1cc(C(O)C(c2ccccn2)C(Nc2ccccn2)c2ccccc2N)no1 (stereo not shown) [Example 49]	0.77
Cc1nc(-c2ccncc2)sc1C(O)C(c1ccccn1)C(Nc1ccccn1)c1ccccc1 (stereo not shown) [Example 50]	0.79
Cc1nc(-c2ccncc2)sc1C(O)C(c1ccccn1)C(Nc1ccccn1)c1ccccc1 (stereo not shown) [Example 51]	0.52
Cc1nc(-c2ccncc2)sc1C(O)C(c1ccccn1)C(Nc1ccccn1)c1ccccc1 (stereo not shown) [Example 52]	0.40
Nc1ccccc1C(Nc1ccccn1)C(c1ccccn1)C(O)c1ccon1 (stereo not shown) [Example 55]	0.31

Second part, the compound after the results:

Biological Test: quotient of the IC50Na values of the reference substance taurochenodeoxycholate (TCDC) and of the test substance	Compound
0.83	OC(c1ccccc1)C(c1ccc2ccccc2n1)C(Nc1ccccn1)c1ccccc1 (stereo not shown) [Example 2]
0.1	OC(c1nccs1)C(c1ccccc1)C(Nc1ccccn1)c1ccccc1 (stereo not shown) [Example 4]
0.57	OC(c1ccccc1)C(c1cnc2ccccc2n1)C(Nc1ccccn1)c1ccccc1 (stereo not shown) [Example 6]
0.22	OC(c1ccccc1)C(c1cnc2ccccc2n1)C(Nc1ccccn1)c1ccccc1 (stereo not shown) [Example 7]
0.35	OC(c1ccccc1)C(c1cnc2ccccc2c1)C(Nc1ccccn1)c1ccccc1 (stereo not shown) [Example 9]
0.37	OC(c1cnc2ccccc2c1)C(c1ccccn1)C(Nc1ccccn1)c1ccccc1 (stereo not shown) [Example 18]
0.42	OC(c1cnc2ccccc2c1)C(c1ccccn1)C(Nc1ccccn1)c1ccccc1 (stereo not shown) [Example 19]
0.23	OC(c1cnc2ccccc2c1)C(c1ccccn1)C(Nc1ccccn1)c1ccccc1 (stereo not shown) [Example 20]
1.16	OC(c1cccs1)C(c1ccccn1)C(Nc1ccccn1)c1ccccc1 (stereo not shown) [Example 21]
0.19	OC(c1cccs1)C(c1ccccn1)C(Nc1ccccn1)c1ccccc1 (stereo not shown) [Example 22]
0.23	OC(c1cccs1)C(c1ccccn1)C(Nc1ccccn1)c1ccccc1 (stereo not shown) [Example 23]
0.22	OC(c1cccs1)C(c1ccccn1)C(Nc1ccccn1)c1ccccc1 (stereo not shown) [Example 24]
0.26	OC(c1ccc(Cl)s1)C(c1ccccn1)C(Nc1ccccn1)c1ccccc1 (stereo not shown) [Example 26]
1.02	Cc1ccc(C(O)C(c2ccccn2)C(Nc2ccccn2)c2ccccc2)s1 (stereo not shown) [Example 27]
0.60	OC(c1cc(-c2ccccc2)on1)C(c1ccccn1)C(Nc1ccccn1)c1ccccc1 (stereo not shown) [Example 41]
0.22	OC(c1cc2ccccc2[nH]1)C(c1ccccn1)C(Nc1ccccn1)c1ccccc1 (stereo not shown) [Example 46]
